{
  "source": "patent US20250352520A1",
  "about": "“USE OF DEXPRAMIPEXOLE FOR THE TREATMENT OF EOSINOPHILIC COPD” (Areteia Therapeutics, Inc., priority 2024, published 2025)",
  "settings": "for COPD Assessment - Total Score, CFB (Change from baseline), Max / COPD Assessment - Total Score, CFB (Change from baseline), Mean ± SD / COPD Assessment - Total Score, CFB (Change from baseline), Median / COPD Assessment - Total Score, CFB (Change from baseline), Min / COPD Assessment - Total Score, CFB (Change from baseline), Q1 / COPD Assessment - Total Score, CFB (Change from baseline), Q3 / COPD Assessment - Total Score, Observed, Max / COPD Assessment - Total Score, Observed, Mean ± SD / COPD Assessment - Total Score, Observed, Median / COPD Assessment - Total Score, Observed, Min / COPD Assessment - Total Score, Observed, Q1 / COPD Assessment - Total Score, Observed, Q3: Week 16, 150 mg BID",
  "excerpt": "The CAT is a participant-completed instrument that can quantify the impact of COPD on the participant's health. It complements existing approaches to assessing COPD, such as FEV1 measurement.\nThe CAT has a scoring range of 0-40 (0 to 5 on 8 questions) with higher numbers indicating more severe symptoms.",
  "key": {"[1]": {"settings": "<50% AEC reduction at Week 16 (N = 4)"}, "[2]": {"settings": ">=50% AEC reduction at Week 16 (N = 3)"}},
  "note": "Where two headings read alike, the source gives them in different places.",
  "data": [
    {"compound": "CCCN[C@@H]1CCc2nc(N)sc2C1", "note": "[Dexpramipexole, (6R)-2-amino-4,5,6,7-tetrahydro-6-(propylamino)benzothiazole]", "values": [
      {"measurement": "CAT total score, decrease compared to baseline", "setting": "AECR≥0.5 patients, week 16", "result": 8.7, "unit": "points"},
      {"measurement": "COPD Assessment - Total Score, CFB (Change from baseline), Max", "setting": "[1]", "result": 0},
      {"measurement": "COPD Assessment - Total Score, CFB (Change from baseline), Mean ± SD", "setting": "[1]", "result": "−1.8 ± 1.50"},
      {"measurement": "COPD Assessment - Total Score, CFB (Change from baseline), Median", "setting": "[1]", "result": "−2.0"},
      {"measurement": "COPD Assessment - Total Score, CFB (Change from baseline), Min", "setting": "[1]", "result": "−3"},
      {"measurement": "COPD Assessment - Total Score, CFB (Change from baseline), Q1", "setting": "[1]", "result": "−3"},
      {"measurement": "COPD Assessment - Total Score, CFB (Change from baseline), Q3", "setting": "[1]", "result": "−1"},
      {"measurement": "COPD Assessment - Total Score, Observed, Max", "setting": "[1]", "result": 24},
      {"measurement": "COPD Assessment - Total Score, Observed, Mean ± SD", "setting": "[1]", "result": "17.5 ± 8.27"},
      {"measurement": "COPD Assessment - Total Score, Observed, Median", "setting": "[1]", "result": 20.0},
      {"measurement": "COPD Assessment - Total Score, Observed, Min", "setting": "[1]", "result": 6},
      {"measurement": "COPD Assessment - Total Score, Observed, Q1", "setting": "[1]", "result": 12},
      {"measurement": "COPD Assessment - Total Score, Observed, Q3", "setting": "[1]", "result": 24},
      {"measurement": "COPD Assessment - Total Score, CFB (Change from baseline), Max", "setting": "[2]", "result": "−8"},
      {"measurement": "COPD Assessment - Total Score, CFB (Change from baseline), Mean ± SD", "setting": "[2]", "result": "−8.7 ± 1.15"},
      {"measurement": "COPD Assessment - Total Score, CFB (Change from baseline), Median", "setting": "[2]", "result": "−8.0"},
      {"measurement": "COPD Assessment - Total Score, CFB (Change from baseline), Min", "setting": "[2]", "result": "−10"},
      {"measurement": "COPD Assessment - Total Score, CFB (Change from baseline), Q1", "setting": "[2]", "result": "−10"},
      {"measurement": "COPD Assessment - Total Score, CFB (Change from baseline), Q3", "setting": "[2]", "result": "−8"},
      {"measurement": "COPD Assessment - Total Score, Observed, Max", "setting": "[2]", "result": 23},
      {"measurement": "COPD Assessment - Total Score, Observed, Mean ± SD", "setting": "[2]", "result": "16.3 ± 5.86"},
      {"measurement": "COPD Assessment - Total Score, Observed, Median", "setting": "[2]", "result": 14.0},
      {"measurement": "COPD Assessment - Total Score, Observed, Min", "setting": "[2]", "result": 12},
      {"measurement": "COPD Assessment - Total Score, Observed, Q1", "setting": "[2]", "result": 12},
      {"measurement": "COPD Assessment - Total Score, Observed, Q3", "setting": "[2]", "result": 23}
    ]}
  ]
}
